The source of these data is ChEMBL document CHEMBL1133798, “Potent and selective bicyclic lactam inhibitors of thrombin. Part 4: transition state inhibitors” (Bioorg Med Chem Lett, 2001).

Where only a bound is given, the exact number is not on record here.

Broadly, the Ki is the dissociation constant of the complex between target and ligand, obtained from inhibition or displacement. As usually defined, the bioavailability is the share of a dose that reaches the circulation, judged against a reference dose that is usually intravenous. A lower bioavailability goes with little systemic uptake. As usually defined, the IC50 is the concentration that gives 50% inhibition. High values mean a need for much substance, low ones inhibition by little substance.

For one data set, the target named is Prothrombin (Homo sapiens, UniProt P00734). Nature of the data set: In vitro activity against human alpha thrombin was determined.
The species entered for data set [1] is Rattus norvegicus. Briefly: Activated partial thromboplastin time was measured in rat arterial thrombosis model. Type of data set: functional.
For data set [2], the species on record is Rattus norvegicus. Briefly: Mean occulation time was measured in rat arterial thrombosis model. The class given is functional.
The species entered for data set [3] is Rattus norvegicus. Nature of the data set: Thrombin time was measured in rat arterial thrombosis model. The class given is functional.
For the next data set, the target named is Serine protease 1 (Homo sapiens, UniProt P07477). Briefly: In vitro activity against human alpha trypsin was determined.
Data set [4] can be described thus: Oral bioavailability in rat (dose 30 mg/kg). Type of data set: ADME, organism-based. The following applies: in vivo.

Sequence of Serine protease 1 (P07477 whole entry): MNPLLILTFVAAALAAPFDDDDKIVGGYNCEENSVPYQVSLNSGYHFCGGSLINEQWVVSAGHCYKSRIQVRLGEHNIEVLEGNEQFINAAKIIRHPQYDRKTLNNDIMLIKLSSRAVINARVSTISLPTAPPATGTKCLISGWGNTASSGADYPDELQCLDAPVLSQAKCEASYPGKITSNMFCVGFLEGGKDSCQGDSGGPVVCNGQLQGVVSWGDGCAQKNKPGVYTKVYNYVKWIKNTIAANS

In the case of `CNC(=O)C(=O)C(NC(=O)[C@@H]1CC[C@H]2CN(S(=O)(=O)Cc3ccccc3)CC(=O)N21)[C@H]1CC[C@H](N)CC1` (some centres undefined), the inhibition constant Ki at Prothrombin amounted to 0.33 nM; at Serine protease 1, 2400 nM. Further, the APTT in the data set listed under Rattus norvegicus [1] is 47 s. Besides, the MOT in the data set listed under Rattus norvegicus [2] turned out to be 20 min. In the data set listed under Rattus norvegicus [3], this molecule showed a TT of 999 s.
With `N[C@H]1CC[C@H](C(NC(=O)[C@@H]2CC[C@H]3CN(S(=O)(=O)Cc4ccccc4)CC(=O)N32)C(=O)C(=O)O)CC1` (some centres undefined), the bioavailability in data set [4] was 0.4%. Further, the figures for the inhibition constant Ki on Prothrombin and at Serine protease 1 were 0.09 nM and 2200 nM, respectively. The molecule also registered an APTT in the data set filed under Rattus norvegicus [1] of 54 s. The molecule also showed an MOT in the data set filed under Rattus norvegicus [2] of over 60 min. Besides, the TT in the data set listed under Rattus norvegicus [3] is reported as 938 s.
`N[C@H]1CC[C@H](C(NC(=O)[C@@H]2CC[C@H]3CN(S(=O)(=O)Cc4ccccc4)CC(=O)N32)C(=O)c2nc3ccccc3s2)CC1` (some centres undefined) returned a bioavailability in data set [4] of 0.6%. Moreover, the inhibitory constant (Ki) on Prothrombin worked out at 0.72 nM; on Serine protease 1, 1400 nM. Also, in the data set listed under Rattus norvegicus [1], the APTT is recorded as 25 s. In addition, the MOT in the data set filed under Rattus norvegicus [2] is on record as over 60 min. In the data set listed under Rattus norvegicus [3], the TT is 339 s.
Consider `N[C@H]1CC[C@H](C(NC(=O)[C@@H]2CC[C@H]3CN(S(=O)(=O)Cc4ccccc4)CC(=O)N32)C(=O)c2nccs2)CC1` (some centres undefined), for which the bioavailability in data set [4] worked out at 1.8%. Further, the inhibition constant (Ki) at Prothrombin came to 3.2 nM; at Serine protease 1, 8000 nM. The molecule also came in with an APTT in the data set filed under Rattus norvegicus [1] of 66 s. Moreover, in the data set listed under Rattus norvegicus [2], the MOT was over 60 min. In the data set filed under Rattus norvegicus [3], the TT is reported as 829 s.
Take `Cn1nnnc1C(=O)C(NC(=O)[C@@H]1CC[C@H]2CN(S(=O)(=O)Cc3ccccc3)CC(=O)N21)[C@H]1CC[C@H](N)CC1` (some centres undefined): the Ki on Prothrombin was found to be 5 nM; on Serine protease 1, 35000 nM. In the data set listed under Rattus norvegicus [1], this molecule came in with an APTT of 46 s. The MOT in the data set listed under Rattus norvegicus [2] is recorded as 46 min. In the data set filed under Rattus norvegicus [3], the TT amounted to 322 s.
In data set [4], `Cc1nc(C(=O)C(NC(=O)[C@@H]2CC[C@H]3CN(S(=O)(=O)Cc4ccccc4)CC(=O)N32)[C@H]2CC[C@H](N)CC2)sc1C(=O)O` (some centres undefined) came in with a bioavailability of 0.4%. Further, the figures for the inhibitory constant (Ki) on Prothrombin and on Serine protease 1 were 80 nM and 65000 nM, respectively. In addition, the APTT in the data set filed under Rattus norvegicus [1] was 20 s. Besides, in the data set listed under Rattus norvegicus [2], the MOT came out at 16 min. Moreover, in the data set filed under Rattus norvegicus [3], the TT was 99 s.
In data set [4], `CCCCOC(=O)C(=O)C(NC(=O)[C@@H]1CC[C@H]2CN(S(=O)(=O)Cc3ccccc3)CC(=O)N21)[C@H]1CC[C@H](N)CC1` (some centres undefined) returned a bioavailability of 0.7%. Moreover, the results for the IC50 at Prothrombin and against Serine protease 1 were 0.1 nM and 550 nM, respectively. The molecule further came in with an APTT in the data set listed under Rattus norvegicus [1] of 53 s. Besides, the MOT in the data set listed under Rattus norvegicus [2] is 47 min. In the data set listed under Rattus norvegicus [3], this molecule showed a TT of 883 s.
As to `N[C@H]1CC[C@H](C(NC(=O)[C@@H]2CC[C@H]3CN(S(=O)(=O)Cc4ccccc4)CC(=O)N32)C(=O)C(=O)NCC(=O)O)CC1` (some centres undefined), the Ki is 2.14 nM at Prothrombin and 29000 nM on Serine protease 1.
Molecule `CCSC(=O)C(=O)C(NC(=O)[C@@H]1CC[C@H]2CN(S(=O)(=O)Cc3ccccc3)CC(=O)N21)[C@H]1CC[C@H](N)CC1` (some centres undefined) registered a bioavailability in data set [4] of 0.3%. The inhibition constant Ki amounted to 0.26 nM on Prothrombin and 150 nM on Serine protease 1. In addition, in the data set listed under Rattus norvegicus [1], the APTT is 33 s. The MOT in the data set filed under Rattus norvegicus [2] came out at 49 min. Also, the TT in the data set listed under Rattus norvegicus [3] amounted to 999 s.
In the case of `N[C@H]1CC[C@H](C(NC(=O)[C@@H]2CC[C@H]3CN(S(=O)(=O)Cc4ccccc4)CC(=O)N32)C(=O)c2nnnn2CC(=O)O)CC1` (some centres undefined), the Ki at Serine protease 1 was over 400000 nM.
As to `COC(=O)C(=O)C(NC(=O)[C@@H]1CC[C@H]2CN(S(=O)(=O)Cc3ccccc3)CC(=O)N21)[C@H]1CC[C@H](N)CC1` (some centres undefined), in data set [4], the bioavailability came out at 1.1%. Further, affinity at Prothrombin was put at a Ki of 0.13 nM. For the same molecule, in the data set listed under Rattus norvegicus [1], the APTT is reported as 46 s. Also, the MOT in the data set listed under Rattus norvegicus [2] was over 60 min. The TT in the data set filed under Rattus norvegicus [3] came out at 999 s.
